The source of these data is a melting point compilation (Tetko et al.; mined from patent text by program, amines drawn as free bases though some values may be those of a salt).

SMILES strings stand for the structures.

`NC(=O)Nc1ccccc1CCc1n[nH]c2c1c(=O)n(-c1ccccc1)c1ncccc21`: the melting point (usually the temperature of the solid-liquid transition) lay within 300 to 305 °C. Compound `CC(=O)Nc1ccc(C(=O)SC[C@@H](C)C(=O)N2CSC[C@H]2C(=O)O)cc1` came in with a melting point of 206 to 207 °C.

For `CSc1nc(C)cc(O)n1`, the melting point is 149 °C. The figure for `O=c1c(Cc2ccncc2)cc2cccnc2n1-c1cccc([N+](=O)[O-])c1` is 230 °C. Take `CC(C)c1cccc(C(C)C)c1NC(=O)N(Cc1ccccc1)CC1(c2ccccc2)CCCC1`: the melting point was in the range of 124 to 127 °C. Take `N#Cc1ccccc1-n1nnc2cccnc21`: the melting point fell in the range of 177 to 179 °C. For the compound `CCOC(=O)COc1ccc(NS(C)(=O)=O)c(C)c1`, the melting point lay in the range of 93 to 94 °C. `COC(=O)c1cn(C(c2ccccc2)(c2ccccc2)c2ccccc2)nn1` had a melting point of 189 to 190 °C. Take `O=C(CBr)Nc1ccccc1C(=O)O`: the melting point is 165 to 168 °C.

Turning to `Cc1nnc2n1-c1ccccc1C(c1ccc(Cl)cc1)=NC2NN(C(=O)NN)C(=O)c1ccccc1` (stereo not given), the melting point was 243 to 245 °C. `CCOc1ccc(C(=O)OC)cc1C(N)=O` had a melting point of 159 to 161 °C. `CCOC(=O)N1CCC(c2noc(-c3cc(Cl)c(N)c4c3OCC4)n2)CC1` gave a melting point of 162 °C. Turning to `COc1ccc(-c2ccc3c(n2)[nH]c2ccccc23)cc1`, the melting point was over 220 °C. The figure for `COc1ccc(S(=O)(=O)Nc2ccc(C)cc2)c2c3ccccc3n(C=O)c12` is 193 to 199 °C. As to `Cc1ccccc1OCC(O)CNC(C)(C)COc1ccc(C(N)=O)cn1` (stereo not given), the melting point lay in the range of 122 to 128 °C. As for `CCOc1nn(-c2ccc(C(F)(F)F)cn2)cc1CCCOc1cc(CC(=O)O)cc(OC)c1`, the melting point lay in the range of 125 to 126 °C.

Consider `CCOCc1nc2c(N)nc3cc(-c4cccnc4)ccc3c2n1CCNC(=O)NC(C)C`, for which the melting point fell in the range of 194 to 196 °C.

`CC1(C)CCc2c(sc3cc(OS(=O)(=O)Cc4ccccc4OC(F)(F)F)ccc3c2=O)C1` showed a melting point of 249 °C. As for `O=[N+]([O-])c1cccc(Nc2nccc(-c3ccccn3)n2)c1`, the melting point was in the range of 213 to 219 °C. `CCCC(=O)c1cc(-c2ccc(C)cc2)no1`: the melting point fell in the range of 86 to 87 °C. `COc1nc(C)nc(OC)c1N1CCCn2c1nc1c(Cl)ccc(C(O)(C3CC3)C3CC3)c12` showed a melting point of 204 to 205 °C. As for `C[C@@H](NC(=CC(=O)OC(C)(C)C)Cc1cc(F)c(F)cc1F)c1ccccc1`, the figure is 76 °C. `CCc1cccc(C)c1CNc1cc(C(=O)N(C)C)cc2c1nc(COC)n2C` returned a melting point of 154 °C. As for `CC(Nc1ccccc1)c1ccc(C(C)Nc2ccccc2)cc1` (stereo not given), the melting point was in the range of 169 to 170 °C.

`CCOC(=O)C[C@@H]1CCCC[C@H]1n1nc(-c2c(-c3ccccc3)nn3ccccc23)ccc1=O` (relative stereo) displayed a melting point of 151 to 152 °C. `O=[N+]([O-])C=C1NCCCCN1` displayed a melting point of 152 to 154 °C. The figure for `CCOC(=O)C=C(C)Nc1ccc(OC)c(OC)c1` is 57 to 58 °C.

For `O=C(CCCCc1ccccc1)Nc1ccc(C(=O)NO)cc1`, the melting point was 189 to 191 °C.

Take `CC(CS)C(=O)Nc1cncc(C(=O)O)c1` (stereo not given): the melting point fell in the range of 160 to 165 °C. In turn, `Cc1cc(C2=NN=C(C=O)Cc3cc4c(cc32)OCO4)ccc1[N+](=O)[O-]` displayed a melting point of 188 to 191 °C. `N#CC(C(=O)O)=C(c1ccc(F)cc1)c1ccc(F)cc1` registered a melting point of 180 to 181 °C. `CCOC(=O)C(C#N)=Cc1c(Cl)n(Cc2ccc(OC)cc2)c2ccccc12` yielded a melting point of 126 to 128 °C. As for `COC(=O)C1=C(C)NC(c2sc(C)nc2C)=NC1c1ccc(F)cc1Cl` (stereo not given), the figure is 116 to 118 °C; as for `Cc1cc(C)cc(Nn2c(-c3ccccc3)c(C)[nH]c2=S)c1`, 240 to 242 °C; as for `N#Cc1ccc(N2C(=O)N(CCO)C3(CCOCC3)C2=O)cc1C(F)(F)F`, 196 to 197 °C.

In the case of `CC1(C)OCC(CO)(CO)CO1`, the melting point was 124 to 126 °C. Compound `N#Cc1cccc(Br)c1N` displayed a melting point of 119 to 120 °C.

`COc1cc2cc(C(=O)O)cc(-c3ccnc(Cl)c3)c2cc1OC` gave a melting point of over 250 °C. Compound `Cc1c[nH]c(=O)nc1-n1cncn1` returned a melting point of 258 to 264 °C. The compound `COc1ccc(C(=O)Cc2cccnc2)cc1` showed a melting point of 71 to 72 °C. `C=CCOc1cc(-c2cc(=O)c3c(OC)cc(OCC4=COC(C)(C)O4)cc3o2)ccc1OC` yielded a melting point of 156 °C. The figure for `CCCCCCC(C)(C)c1ccc([C@@H]2CC(=O)C[C@H](C)C2)c(O)c1` (relative stereo) is 95 to 98 °C; for `CC1(C)Oc2ccc(S(C)(=O)=O)cc2[C@@H](N2CCSC2=NC#N)[C@@H]1O` (relative stereo) it is 304 to 307 °C. Regarding `COC(=O)ON=C(N)c1ccc(C(=O)OC(C)(C)C)cc1`, the melting point lay in the range of 157 to 159 °C. `CCC(CC)c1nn(-c2ccc(C(F)(F)F)cn2)cc1CCCOc1c(C)cccc1CC(=O)O` came in with a melting point of 125 to 126 °C. The compound `NS(=O)(=O)c1cc(C(O)CN(Cc2ccccc2)Cc2ccccc2)ccc1N1CCCCC1` (stereo not given) yielded a melting point of 133 to 142 °C. Compound `Oc1cccc(-c2csc(-c3cccnc3)n2)c1` showed a melting point of 180 to 181 °C.

The compound `CN(O)C(=O)NCCc1ccc(Cl)c(Cl)c1` yielded a melting point of 108 to 109 °C.

For the compound `COC(=O)c1ccc(-n2cccn2)cc1`, the melting point lay in the range of 107 to 109 °C. `CCOC(=O)C1=Cc2cc(C=NO)ccc2OC1C(F)(F)F` (stereo not given) had a melting point of 113 to 116 °C. As for `O=C(c1ccc(S(=O)(=O)Cl)cc1)c1cccs1`, the figure is 118 °C; as for `OC(c1ccc(F)cc1)(c1ccc(F)cc1)C1CCN(Cc2ccccc2)CC1`, 113 to 115 °C. For `CCOc1cc(C(O)CS(C)(=O)=O)cc(OCC)c1N` (stereo not given), the melting point lay within 166 to 168 °C. Take `O=C(Cl)C1CCN(c2cc(-c3ccccc3)nc3ccc(F)cc23)CC1`: the melting point was in the range of 243 to 245 °C. For the compound `O=S(=O)(Nc1cc(O)ccc1Oc1ccccc1)C(F)(F)F`, the melting point was in the range of 97 to 99 °C. With `NC(=O)NCc1c[nH]c(=S)n1[C@H]1CCc2c(F)cc(F)cc2C1`, the melting point was 258 to 260 °C. With `CCC(=O)N[C@@H](C)C(=O)N1CCC[C@H]1C(=O)O`, the melting point fell in the range of 169 to 171 °C.

In the case of `C/C(=C\c1ccc(C(=O)O)cc1)c1ccc(O)c(C23CC4CC(CC(C4)C2)C3)c1`, the melting point is 245 to 246 °C. On to `CC(C)(C)OC(=O)N1CC=C(c2ccc(NCc3ccccc3)cc2)CC1`, for which the melting point was 120 to 121 °C. `CCOC(=O)c1nsc(=O)o1` came in with a melting point of 49 °C. As for `COC(=O)c1ccc(C(=O)NS(=O)(=O)c2ccc(CCNC(=O)CC(C)C)cc2)cn1`, the figure is 176 to 178 °C; as for `Cc1cn(C(C)(C)C(=O)N(C)C)nc1-c1cccc(Cl)c1`, 144 to 146 °C. Consider `CCOc1cccc2cc(C(=O)NNS(=O)(=O)c3ccccc3)oc12`, for which the melting point lay within 223 to 224 °C.

In turn, `CCCCCCCCCCCCCCOCC(CC#N)(CC#N)COCCCCCCCCCCCCCC` came in with a melting point of 33 to 35 °C. In the case of `Cc1sc(C=O)cc1Br`, the melting point stood at 58 °C. As for `N#Cc1ccc(C(=O)CNc2ccc(Br)cc2)cc1`, the figure is 154 to 157 °C. Turning to `CCCNCCCOc1ccc(-c2ccc(C(=O)O)cc2)cc1-c1ccc2c(c1)C(C)(C)CCC2(C)C`, the melting point is 226 °C.

On to `COc1ccc(C(=O)c2ccc3cc(OC)ccc3c2)c(ON=C(C)C)c1`, for which the melting point lay in the range of 117 to 118 °C. `O=C(O)CCc1cnoc1-c1ccc(F)c(Cl)c1`: the melting point lay in the range of 118 to 119 °C. `CCN1CCC(c2c[nH]c3ccc(NS(C)(=O)=O)cc23)CC1` gave a melting point of 179 to 181 °C. In turn, `CC#Cc1cn(C2OC(CO)C(O)C2O)c(=O)[nH]c1=O` (stereo not given) displayed a melting point of 225 to 227 °C. Take `NC(=O)c1c(O)cccc1OCCBr`: the melting point is 120 to 121 °C.

Compound `CC(C)(OCc1nn(Cc2ccccc2)c2ccccc12)C(=O)NN` showed a melting point of 92 to 93 °C. The figure for `C=C(Nc1nc(-c2ccccc2)c(-c2nc3ccccc3c(=O)n2-c2ccccc2)s1)c1ccco1` is 271 to 272 °C; for `OC1CCCc2nc3ccccc3c(NCc3ccc(C(F)(F)F)cc3)c21` (stereo not given) it is 174 to 176 °C. Regarding `CCCC1NC(C(=O)O)Cc2c1[nH]c1ccccc21` (stereo not given), the melting point was in the range of 210 to 211 °C. `CC1CCCCC1C(=O)Nc1ccc(-c2ncc(-c3ccc(NC(=O)c4cccnc4)cc3)[nH]2)cc1` (stereo not given) showed a melting point of 245 to 247 °C. `CN(C)C1CCc2oc3ccc([N+](=O)[O-])cc3c2C1` (stereo not given) returned a melting point of 88 to 89 °C. The figure for `O=C1C[C@@H](O)C[C@H](CCc2c(Cl)cc(Cl)cc2OCc2ccc(F)cc2)O1` is 133 to 135 °C; for `Cc1c([N+](=O)[O-])cc2c(c1C)OC(C)(C)C2=O` it is 131 to 132 °C; for `COc1cccc(-c2n[nH]c(-c3ccccc3C)n2)c1` it is 100 to 102 °C. In turn, `O=C1Nc2cc(Cl)ccc2Oc2ccccc21` gave a melting point of 250 to 255 °C.

Consider `O=S(=O)(Cl)c1ccc(-c2ccc(C(F)(F)F)cc2)s1`, for which the melting point was 73 to 75 °C.

Take `O=C(Nc1nc(OCc2ccc(F)cc2)ncc1F)c1snc(Cl)c1Cl`: the melting point is 87 to 90 °C.

`N#CC(N)(N)c1cccnc1`: the melting point is 158 °C.

As for `COc1cc(COc2cc(CCC(=O)O)n(-c3ccccc3)n2)ccc1OCc1nc(-c2ccccc2)oc1C`, the melting point is 157 to 158 °C. Compound `Cc1cc(C(=O)N[C@@H](CC(C)C)C(=O)N[C@@H](C(C)C)[C@@H](O)c2c(-c3ccccc3)c2=O)n(C)n1` showed a melting point of 115 to 118 °C. For `C=C1CCc2c(N3CCC(O)C3)c(F)cc3c(=O)c(C(=O)O)cn1c23` (stereo not given), the melting point lay within 190 to 196 °C.

`CC(C)Cc1nc2cc(C(c3cccc(Cl)c3)n3ccnc3)ccc2[nH]c1=O` (stereo not given) registered a melting point of 210 °C. Compound `CN1C(=O)C(C(=O)c2ccc(Cl)cc2Cl)C(=O)N(C)C1=O` displayed a melting point of 123 to 127 °C.
